From US7919577B2, “Adrenocorticotropic hormone analogs and related methods” (Colorado Seminary, priority 2004, dated 2011) come the findings set out here.

No end group written: not given here.

The test relates to dexamethasone-suppressed male FVB/N mice. Put plainly: in vivo Serum Corticosteroid Inhibition Assay (Example 2). Also on record: species or system mouse. Particulars: for serum corticosterone at 180 minutes: blood one hour later; for reduction in serum corticosterone levels: ACTH alone normalized to 100%, FIG. 2; for corticosterone induction as percent of that of wildtype ACTH: 1 hour after last peptide injection. Here is the method: The in vivo Serum Corticosteroid Inhibition Assay can include sequential administration of the test compound and the corticosteroid-producing compound by the following steps: first, an agent to suppress endogenous ACTH production was administered to a mouse subject, such as an intraperitoneal injection of dexamethasone; second, after waiting a suitable period of time for suppression of endogenous ACTH production (e.g., 1.5-2.0 hours), a test compound was administered to the mouse by a suitable method, such as intraperitoneal injection; third, after waiting a suitable period of time (e.g., 1 hour) for action of the test compound, a compound with corticosteroid-producing activity can be administered to the mouse by a suitable method, such as intraperitoneal injection; and fourth, after waiting a suitable period of time for the biological activity of both administered compounds to occur (e.g., 1 hour), a blood sample was taken from the subject and the level of serum corticosterone was determined by a suitable method, such as a competitive radioimmunoassay using ^125I RIA kit (ICN, Costa Mesa, Calif.). Optionally, steps two and three can be reversed (administering the corticosteroid-producing compound first, followed by administration of the test compound). The in vivo Serum Corticosteroid Inhibition Assay can also include co-administration of the test compound and the corticosteroid-producing compound by the following steps: first, an agent to suppress endogenous ACTH production was administered to a mouse subject, such as an intraperitoneal injection of dexamethasone; second, after waiting a suitable period of time for suppression of endogenous ACTH production (e.g., 1.5-2.0 hours), the corticosteroid-producing compound and a test compound were co-administered to the mouse by a suitable method, such as intraperitoneal injection; and third, after waiting a suitable period of time for the biological activity of both administered compounds to occur (e.g., 1 hour), a blood sample was taken from the subject and the level of serum corticosterone was determined by a suitable method, such as a competitive radioimmunoassay using ^125I RIA kit (ICN, Costa Mesa, Calif.). Also, in some embodiments, the first step in any in vivo Serum Corticosteroid Inhibition Assay can be replaced by a measurement of the initial endogenous corticosteroid or corticosteroid level in the blood of the subject in the manner of step four, instead of administering the agent to suppress ACTH production. Example 2 describes murine in vivo Serum Corticosteroid Inhibition Assays in detail.
A series of separate in vivo Serum Corticosteroid Inhibition Assays were performed to identify ACTH analogs that inhibit ACTH adrenal hormone production in vivo. The serum corticosterone levels of dexamethasone-suppressed mice were measured as described in Example 2 after administration of (1) ACTH (corticosteroid-producing compound), (2) an ACTH analog (test compound) followed by subsequent administration of ACTH, (3) a combination of ACTH and the ACTH analog and (4) the ACTH analog alone.
The in vivo Serum Corticosteroid Inhibition Assay was performed according the following method. The ACTH analog test compounds, such as those showing low activities in Example 1, were tested for their abilities to inhibit adrenal hormone production induced by unmodified ACTH.
First, two to three month-old male FVB/N mice from our colony, five per group, were injected intraperitoneally with dexamethasone (0.4 mg/0.1 ml PBS per mouse; Sigma, St. Louis, Mo.) to suppress their endogenous ACTH production.
Second, ninety to one hundred twenty minutes later, animals were injected subcutaneously between the shoulder blades with wild type ACTH and/or test ACTH analog peptides (1 μg/0.1 mL PBS/0.5% BSA) or with vehicle alone (0.1 mL PBS/0.5% BSA). […]

Take “N-Ser^1-Tyr-Ser-Met-Glu^5-His-Phe-Arg-Trp-Gly^10-Lys-Pro-Val-Gly-Lys^15-Arg-Ala-Ala-Trp-Val^20-Lys-Val-Tyr-Pro-Ac (SYSMEHFRWGKPVGKRAAWVKVYP; not fully specified; printed as N-Ser1-Tyr-Ser-Met-Glu5-His-Phe-Arg-Trp-Gly10-Lys-Pro-Val-Gly-Lys15-Arg-Ala-Ala-Trp-Val20-Lys-Val-Tyr-Pro-Ac) [AT814]”: the “serum corticosterone at 180 minutes” value is “about 7±7 ng/mL” (ACTH analog alone 120 minutes after dexamethasone (AT), listed as (KKRRP15-19KRAAW) mACTH(1-24)); 7 ± 7 ng/mL (ACTH analog alone 120 minutes after dexamethasone (AT), listed as (KKRRP15-19KRAAW)mACTH(1-24)); 175 ± 27 ng/mL (ACTH analog at 90 minutes, mACTH(1-24) at 120 minutes after dexamethasone (AT90-ACTH120), listed as (KKRRP15-19KRAAW) mACTH(1-24)); 175 ± 27 ng/mL (ACTH analog at 90 minutes, mACTH(1-24) at 120 minutes after dexamethasone (AT90-ACTH120), listed as (KKRRP15-19KRAWW)mACTH(1-24)); 51 ± 8 ng/mL (ACTH analog together with mACTH(1-24) at 120 minutes after dexamethasone ((AT + ACTH)120)); 51 ± 8 ng/mL (ACTH analog together with mACTH(1-24) at 120 minutes after dexamethasone ((AT + ACTH)120), listed as (KKRRP15-19KRAAW)mACTH(1-24)). Moreover, the “reduction in serum corticosterone levels” value runs as follows: (analog 30 minutes before ACTH) ~65%; (analog concurrently with ACTH) ~90%. Besides, the “corticosterone induction as percent of that of wildtype ACTH” value (applied 30 minutes before the ACTH injection) is recorded as 35% and the “corticosterone induction as percent of that of wildtype ACTH” value (applied at the same time as the ACTH injection) is given as 10%.
